Test results: paper PMC6985185 (Breast cancer research and treatment, 2019)
“And” between values parts separate entries of the source, which are not always exact repeats. Equal values may be shown once.

Key:
[1] = tested on: TamR (tamoxifen resistant) xenograft tumors; assay: TamR Study 1: growth of tamoxifen-resistant xenograft tumors under fulvestrant; assay type: in vivo, Nu:J mice
[2] = biological target: T1, estrogen receptor (ER) (Homo sapiens, UniProt P03372); assay: Immunoblot of ER levels in TamR tumors, Study 1; settings: 28 days of treatment
T1 sequence (P03372 1-595): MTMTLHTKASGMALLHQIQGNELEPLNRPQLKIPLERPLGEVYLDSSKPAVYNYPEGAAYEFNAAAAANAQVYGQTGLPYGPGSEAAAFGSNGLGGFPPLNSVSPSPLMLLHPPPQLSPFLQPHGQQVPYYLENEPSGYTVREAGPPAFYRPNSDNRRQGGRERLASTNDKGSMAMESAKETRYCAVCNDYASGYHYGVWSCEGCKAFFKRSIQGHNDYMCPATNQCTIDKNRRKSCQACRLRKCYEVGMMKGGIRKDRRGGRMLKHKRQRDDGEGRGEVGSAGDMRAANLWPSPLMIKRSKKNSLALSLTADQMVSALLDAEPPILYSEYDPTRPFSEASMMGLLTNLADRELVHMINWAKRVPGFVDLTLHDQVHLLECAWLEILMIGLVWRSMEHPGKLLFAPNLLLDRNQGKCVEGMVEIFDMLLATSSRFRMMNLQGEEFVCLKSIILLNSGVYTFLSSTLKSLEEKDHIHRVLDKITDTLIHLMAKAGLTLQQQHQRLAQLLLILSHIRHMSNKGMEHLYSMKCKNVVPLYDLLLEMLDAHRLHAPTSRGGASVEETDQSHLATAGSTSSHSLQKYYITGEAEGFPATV

[3] = Circulating plasma levels of fulvestrant at euthanasia, TamR Study 1 (LC/MS/MS); assay type: in vivo, Nu:J mice; settings: female, Nu/J, mouse, subcutaneous
[4] = tested on: ER; settings: months of treatment with originally approved 250 mg/month regimen; cited from earlier work
[5] = biological target: T1, estrogen receptor (ER); assay: Immunoblot of ER levels in HCC1428 tumors; settings: 25 mg/kg sc qw, 4 weeks
[6] = tested on: HCC1428 breast cancer xenograft tumors; assay: HCC1428 Study: growth of estrogen dependent xenograft tumors; assay type: in vivo, Nu:J mice; settings: 25 mg/kg sc qw, 4 weeks; ovariectomized mice receiving oral estradiol
[7] = Circulating plasma levels of fulvestrant after a single injection (LC/MS/MS); assay type: in vivo, Nu:J mice; settings: single injection of 25 or 200 mg/kg; plasma collected 1, 3, 5, or 7 days after administration
[8] = current clinical protocol; cited from earlier work
[9] = tested on: uterus; assay: Uterine wet weight in LTED tumor bearing mice; assay type: in vivo, Nu:J mice; settings: ovariectomized LTED tumor bearing mice, after 4 weeks of treatment at the LTED study doses
[10] = tested on: breast cancer; settings: 500 vs 250 mg/month, loading regimen 500 mg on d1, d14, d29; cited from earlier work
[11] = tested on: breast cancer; settings: 250 mg monthly; patients that had already progressed during AI treatment; cited from earlier work
[12] = tested on: ER target genes AGR2, AGR3, and KRT13; assay: RT-qPCR of tamoxifen responsive ER target genes in TamR tumors; assay type: in vivo, Nu:J mice
[13] = all doses administered (25-200 mg/kg)

## C[C@]12CC[C@@H]3c4ccc(O)cc4C[C@@H](CCCCCCCCC[S+]([O-])CCCC(F)(F)C(F)(F)F)[C@H]3[C@@H]1CC[C@@H]2O (stereo partly shown) [Fulvestrant, fulvestrant]
[1]; 4 weekly injections of 25, 50, 100, or 200 mg/kg (all doses), no significant differences between doses
  Inhibition of TamR tumor growth vs vehicle control: significant inhibition of tumor growth
[1]; fulvestrant 25 mg/kg sc weekly, day 0 of treatment
  % tumor growth inhibition of TamR tumors: −1%
[1]; fulvestrant 25 mg/kg sc weekly, day 2 of treatment
  % tumor growth inhibition of TamR tumors: 25%
[1]; fulvestrant 25 mg/kg sc weekly, day 4 of treatment
  % tumor growth inhibition of TamR tumors: 20%
[1]; fulvestrant 25 mg/kg sc weekly, day 7 of treatment
  % tumor growth inhibition of TamR tumors: 21%
[1]; fulvestrant 25 mg/kg sc weekly, day 9 of treatment
  % tumor growth inhibition of TamR tumors: 18%
[1]; fulvestrant 25 mg/kg sc weekly, day 11 of treatment
  % tumor growth inhibition of TamR tumors: 24%
[1]; fulvestrant 25 mg/kg sc weekly, day 14 of treatment
  % tumor growth inhibition of TamR tumors: 33%
[1]; fulvestrant 25 mg/kg sc weekly, day 16 of treatment
  % tumor growth inhibition of TamR tumors: 29%
[1]; fulvestrant 25 mg/kg sc weekly, day 18 of treatment
  % tumor growth inhibition of TamR tumors: 39%
[1]; fulvestrant 25 mg/kg sc weekly, day 21 of treatment
  % tumor growth inhibition of TamR tumors: 44%
[1]; fulvestrant 25 mg/kg sc weekly, day 23 of treatment
  % tumor growth inhibition of TamR tumors: 45%
[1]; fulvestrant 25 mg/kg sc weekly, day 25 of treatment
  % tumor growth inhibition of TamR tumors: 47%
[1]; fulvestrant 25 mg/kg sc weekly, day 28 of treatment
  % tumor growth inhibition of TamR tumors: 47%
[1]; fulvestrant 50 mg/kg sc weekly, day 0 of treatment
  % tumor growth inhibition of TamR tumors: −1%
[1]; fulvestrant 50 mg/kg sc weekly, day 2 of treatment
  % tumor growth inhibition of TamR tumors: 24%
[1]; fulvestrant 50 mg/kg sc weekly, day 4 of treatment
  % tumor growth inhibition of TamR tumors: 20%
[1]; fulvestrant 50 mg/kg sc weekly, day 7 of treatment
  % tumor growth inhibition of TamR tumors: 26%
[1]; fulvestrant 50 mg/kg sc weekly, day 9 of treatment
  % tumor growth inhibition of TamR tumors: 28%
[1]; fulvestrant 50 mg/kg sc weekly, day 11 of treatment
  % tumor growth inhibition of TamR tumors: 31%
[1]; fulvestrant 50 mg/kg sc weekly, day 14 of treatment
  % tumor growth inhibition of TamR tumors: 37%
[1]; fulvestrant 50 mg/kg sc weekly, day 16 of treatment
  % tumor growth inhibition of TamR tumors: 40%
[1]; fulvestrant 50 mg/kg sc weekly, day 18 of treatment
  % tumor growth inhibition of TamR tumors: 44%
[1]; fulvestrant 50 mg/kg sc weekly, day 21 of treatment
  % tumor growth inhibition of TamR tumors: 51%
[1]; fulvestrant 50 mg/kg sc weekly, day 23 of treatment
  % tumor growth inhibition of TamR tumors: 58%
[1]; fulvestrant 50 mg/kg sc weekly, day 25 of treatment
  % tumor growth inhibition of TamR tumors: 59%
[1]; fulvestrant 50 mg/kg sc weekly, day 28 of treatment
  % tumor growth inhibition of TamR tumors: 62%
[1]; fulvestrant 100 mg/kg sc weekly, day 0 of treatment
  % tumor growth inhibition of TamR tumors: −3%
[1]; fulvestrant 100 mg/kg sc weekly, day 2 of treatment
  % tumor growth inhibition of TamR tumors: 23%
[1]; fulvestrant 100 mg/kg sc weekly, day 4 of treatment
  % tumor growth inhibition of TamR tumors: 20%
[1]; fulvestrant 100 mg/kg sc weekly, day 7 of treatment
  % tumor growth inhibition of TamR tumors: 27%
[1]; fulvestrant 100 mg/kg sc weekly, day 9 of treatment
  % tumor growth inhibition of TamR tumors: 16%
[1]; fulvestrant 100 mg/kg sc weekly, day 11 of treatment
  % tumor growth inhibition of TamR tumors: 32%
[1]; fulvestrant 100 mg/kg sc weekly, day 14 of treatment
  % tumor growth inhibition of TamR tumors: 44%
[1]; fulvestrant 100 mg/kg sc weekly, day 16 of treatment
  % tumor growth inhibition of TamR tumors: 36%
[1]; fulvestrant 100 mg/kg sc weekly, day 18 of treatment
  % tumor growth inhibition of TamR tumors: 50%
[1]; fulvestrant 100 mg/kg sc weekly, day 21 of treatment
  % tumor growth inhibition of TamR tumors: 46%
[1]; fulvestrant 100 mg/kg sc weekly, day 23 of treatment
  % tumor growth inhibition of TamR tumors: 53%
[1]; fulvestrant 100 mg/kg sc weekly, day 25 of treatment
  % tumor growth inhibition of TamR tumors: 49%
[1]; fulvestrant 100 mg/kg sc weekly, day 28 of treatment
  % tumor growth inhibition of TamR tumors: 58%
[1]; fulvestrant 200 mg/kg sc weekly, day 0 of treatment
  % tumor growth inhibition of TamR tumors: 2%
[1]; fulvestrant 200 mg/kg sc weekly, day 2 of treatment
  % tumor growth inhibition of TamR tumors: 28%
[1]; fulvestrant 200 mg/kg sc weekly, day 4 of treatment
  % tumor growth inhibition of TamR tumors: 24%
[1]; fulvestrant 200 mg/kg sc weekly, day 7 of treatment
  % tumor growth inhibition of TamR tumors: 24%
[1]; fulvestrant 200 mg/kg sc weekly, day 9 of treatment
  % tumor growth inhibition of TamR tumors: 25%
[1]; fulvestrant 200 mg/kg sc weekly, day 11 of treatment
  % tumor growth inhibition of TamR tumors: 39%
[1]; fulvestrant 200 mg/kg sc weekly, day 14 of treatment
  % tumor growth inhibition of TamR tumors: 47%
[1]; fulvestrant 200 mg/kg sc weekly, day 16 of treatment
  % tumor growth inhibition of TamR tumors: 48%
[1]; fulvestrant 200 mg/kg sc weekly, day 18 of treatment
  % tumor growth inhibition of TamR tumors: 53%
[1]; fulvestrant 200 mg/kg sc weekly, day 21 of treatment
  % tumor growth inhibition of TamR tumors: 61%
[1]; fulvestrant 200 mg/kg sc weekly, day 23 of treatment
  % tumor growth inhibition of TamR tumors: 66%
[1]; fulvestrant 200 mg/kg sc weekly, day 25 of treatment
  % tumor growth inhibition of TamR tumors: 67%
[1]; fulvestrant 200 mg/kg sc weekly, day 28 of treatment
  % tumor growth inhibition of TamR tumors: 74%
[2]; 25 mg/kg dose
  ER downregulation in TamR tumors (immunoblot): did not result in significant ER downregulation
[2]; 50, 100, and 200 mg/kg doses
  ER downregulation in TamR tumors (immunoblot): Significant (p < 0.001) downregulation of ER
[3]; 25 mg/kg
  concentration at 7 days after final dose: 34.6 ng/mL and 57 nM
[3]; 50 mg/kg
  concentration at 7 days after final dose: 64.9 ng/mL and 107 nM
[3]; 100 mg/kg
  concentration at 7 days after final dose: 95.6 ng/mL and 157 nM
[3]; 200 mg/kg
  concentration at 7 days after final dose: 207 ng/mL and 340 nM
[4]
  Patients exhibiting intratumoral [(18)F]fluoroestradiol (FES) binding during follow up PET scans: 30%
[5]
  ER expression in HCC1428 tumors (western blotting): modest but significant downregulation of ER expression
[6]
  Effect on HCC1428 xenograft tumor growth: Tumor stasis
[7]
  Time of highest plasma level after single injection: highest levels detected one day after administration
[8]
  Cmax observed per current protocol in patients: ~28 ng/mL
[9]
  Uterine wet weight (measure of uterine stimulation): non-significant trend toward reduced uterine weight
[10]
  Clinical response to higher dose with loading regimen: improved response rate and increased time to progression
[11]
  Response rate in the EFFECT trial: 7.4%
[12]; [13]
  mRNA expression of anterior gradient protein 3 (AGR3) in TamR tumors: dramatic downregulation
  mRNA expression of keratin 13 (KRT13) in TamR tumors: dramatic downregulation
[12]; only for doses that resulted in quantitative downregulation of ER protein
  mRNA expression of AGR2 in TamR tumors: modest reduction in AGR2 expression
